This passage reports T/C results from PubChem BioAssay AID270 (DTP/NCI, 2004).

The subject of the assay is BDF1 mice, s.c. Lewis lung carcinoma, T/C %. The assay is described as follows: NCI In Vivo Anticancer Drug Screen. Data for tumor model Lewis Lung Carcinoma (subcutaneous) in B6D2F1 (BDF1) mice. The method in brief:
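First, mice carry a transplantable tumor. Next, groups receive either compound or vehicle. Finally, survival or tumor dimensions in the dosed animals are divided by the corresponding control figure.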

[1] abbreviates: endpoint: median survival time, dose: 50.0 mg/kg/injection, schedule: Q01DX009 (ip), vehicle: saline with Tween-80, higher = longer survival.
The mark [2] stands for this setting: endpoint: median survival time, dose: 6.25 mg/kg/injection, schedule: Q01DX009 (ip), vehicle: Klucel (hydroxypropylcellulose) (HPC), higher = longer survival.
The mark [3] stands for this setting: endpoint: median survival time, dose: 12.5 mg/kg/injection, schedule: Q04DX003 (ip), vehicle: DMSO, higher = longer survival.

Where “and” joins values, the source holds several entries; their conditions need not be identical. Equal entries are not always repeated. Inconclusive results are not listed.

Regarding `Cc1c(C)c2c(c(C)c1O)CCC(C)(CCCC(C)CCCC(C)CCCC(C)C)O2` (configuration not stated), the T/C runs as follows: (endpoint: median survival time, dose: 12.5 mg/kg/injection, schedule: Q02DX009 (ip), vehicle: olive oil, sesame oil, peanut oil, higher = longer survival) 116 % of control; (endpoint: median survival time, dose: 25.0 mg/kg/injection, schedule: Q02DX009 (ip), vehicle: olive oil, sesame oil, peanut oil, higher = longer survival) 100 % of control; (endpoint: median survival time, dose: 50.0 mg/kg/injection, schedule: Q02DX009 (ip), vehicle: olive oil, sesame oil, peanut oil, higher = longer survival) 108 % of control; (endpoint: median survival time, dose: 100.0 mg/kg/injection, schedule: Q02DX009 (ip), vehicle: olive oil, sesame oil, peanut oil, higher = longer survival) 104 % of control; (endpoint: median survival time, dose: 200.0 mg/kg/injection, schedule: Q02DX009 (ip), vehicle: olive oil, sesame oil, peanut oil, higher = longer survival) 122 % of control; (endpoint: median survival time, dose: 400.0 mg/kg/injection, schedule: Q02DX009 (ip), vehicle: olive oil, sesame oil, peanut oil, higher = longer survival) 118 % of control.

Regarding `CNC(C)C(O)c1ccccc1` (configuration not stated), the T/C (endpoint: mean tumor weight, dose: 66.6 mg/kg/injection, schedule: Q01DX011 (ip), vehicle: saline, higher = larger tumour) was 109 % of control.

As for `NC(=S)N/N=C\c1nccc2c(N)cccc12`, the T/C is 107 % of control and 110 % of control (endpoint: median survival time, dose: 6.25 mg/kg/injection, schedule: Q01DX009 (ip), vehicle: saline with Tween-80, higher = longer survival); 94 % of control and 113 % of control (endpoint: median survival time, dose: 12.5 mg/kg/injection, schedule: Q01DX009 (ip), vehicle: saline with Tween-80, higher = longer survival); 112 % of control and 117 % of control (endpoint: median survival time, dose: 25.0 mg/kg/injection, schedule: Q01DX009 (ip), vehicle: saline with Tween-80, higher = longer survival); 105 % of control under setting [1]; 110 % of control and 124 % of control (endpoint: median survival time, dose: 75.0 mg/kg/injection, schedule: Q01DX009 (ip), vehicle: saline with Tween-80, higher = longer survival).

Regarding `ClCCCN1CCCCC1CCl` (configuration not stated), the T/C is, setting by setting: (endpoint: median survival time, dose: 3.12 mg/kg/injection, schedule: Q04DX003 (ip), vehicle: saline, higher = longer survival) 96 % of control; (endpoint: median survival time, dose: 6.25 mg/kg/injection, schedule: Q04DX003 (ip), vehicle: saline, higher = longer survival) 113 % of control; (endpoint: median survival time, dose: 12.5 mg/kg/injection, schedule: Q04DX003 (ip), vehicle: saline, higher = longer survival) 104 % of control.

On to `CC[C@@H](C(=O)[C@@H](C)[C@@H](O)[C@H](C)CCc1ccc(C)c(O)c1C(=O)O)[C@H]1O[C@](CC)([C@H]2CC[C@](O)(CC)[C@H](C)O2)C[C@@H]1C`, for which the T/C runs as follows: (endpoint: median survival time, dose: 0.78 mg/kg/injection, schedule: Q01DX009 (ip), vehicle: Klucel (hydroxypropylcellulose) (HPC), higher = longer survival) 113 % of control; (endpoint: median survival time, dose: 1.56 mg/kg/injection, schedule: Q01DX009 (ip), vehicle: Klucel (hydroxypropylcellulose) (HPC), higher = longer survival) 111 % of control; (endpoint: median survival time, dose: 3.12 mg/kg/injection, schedule: Q01DX009 (ip), vehicle: Klucel (hydroxypropylcellulose) (HPC), higher = longer survival) 93 % of control; under setting [2], 96 % of control; (endpoint: median survival time, dose: 25.0 mg/kg/injection, schedule: Q01DX009 (ip), vehicle: Klucel (hydroxypropylcellulose) (HPC), higher = longer survival) 96 % of control.

For `C[C@]12C=CC(=O)C=C1CC[C@@H]1[C@@H]2CC[C@]2(C)OC(=O)CC[C@@H]12`, the T/C (endpoint: mean tumor weight, dose: 12.5 mg/kg/injection, schedule: Q01DX011 (sc), vehicle: steriod suspending solution, higher = larger tumour) was 75 % of control; the T/C (endpoint: mean tumor weight, dose: 25.0 mg/kg/injection, schedule: Q01DX011 (sc), vehicle: steriod suspending solution, higher = larger tumour) was 102 % of control; the T/C (endpoint: mean tumor weight, dose: 50.0 mg/kg/injection, schedule: Q01DX011 (sc), vehicle: steriod suspending solution, higher = larger tumour) was 53 % of control; the T/C (endpoint: mean tumor weight, dose: 100.0 mg/kg/injection, schedule: Q01DX011 (sc), vehicle: steriod suspending solution, higher = larger tumour) was 97 % of control.

Regarding `O=[N+]([O-])c1ccc(Cl)c2c([N+](=O)[O-])cccc12`, the T/C was 118 % of control under setting [2]; 114 % of control (endpoint: median survival time, dose: 12.5 mg/kg/injection, schedule: Q01DX009 (ip), vehicle: Klucel (hydroxypropylcellulose) (HPC), higher = longer survival); 103 % of control (endpoint: median survival time, dose: 50.0 mg/kg/injection, schedule: Q01DX009 (ip), vehicle: Klucel (hydroxypropylcellulose) (HPC), higher = longer survival); 111 % of control (endpoint: median survival time, dose: 100.0 mg/kg/injection, schedule: Q01DX009 (ip), vehicle: Klucel (hydroxypropylcellulose) (HPC), higher = longer survival).

For `CCc1ccccc1N1CCN(C(=O)c2cc(OC)c(OC)c(OC)c2)CC1`, the T/C (endpoint: mean tumor weight, dose: 25.0 mg/kg/injection, schedule: Q01DX011 (ip), vehicle: carboxymethylcellulose (CMC), higher = larger tumour) is 46 % of control and 48 % of control.

For the compound `C=C(C)[C@@H]1CC[C@]2(CO)CC[C@]3(C)[C@H](CC[C@@H]4[C@@]5(C)CC[C@H](O)C(C)(C)[C@@H]5CC[C@]43C)[C@@H]12`, the T/C reads like this: (endpoint: mean tumor weight, dose: 100.0 mg/kg/injection, schedule: Q01DX011 (ip), vehicle: carboxymethylcellulose (CMC), higher = larger tumour) 101 % of control; (endpoint: mean tumor weight, dose: 200.0 mg/kg/injection, schedule: Q01DX011 (ip), vehicle: carboxymethylcellulose (CMC), higher = larger tumour) 68 % of control.

Take `C=COCC(C)C` (tested in a mixture with another compound): the T/C is 101 % of control (endpoint: median survival time, dose: 1.25 mg/kg/injection, schedule: Q01DX009 (ip), vehicle: other, higher = longer survival); 110 % of control (endpoint: median survival time, dose: 2.5 mg/kg/injection, schedule: Q01DX009 (ip), vehicle: other, higher = longer survival); 107 % of control (endpoint: median survival time, dose: 5.0 mg/kg/injection, schedule: Q01DX009 (ip), vehicle: other, higher = longer survival).

`CC(C)C1(C(=O)NNC(=O)CCCc2ccc(N(CCCl)CCCl)cc2)OC2(O)CCCCCN2C1=O` (configuration not stated): the T/C runs as follows: (endpoint: median survival time, dose: 3.12 mg/kg/injection, schedule: Q04DX003 (ip), vehicle: DMSO, higher = longer survival) 111 % of control; (endpoint: median survival time, dose: 6.25 mg/kg/injection, schedule: Q04DX003 (ip), vehicle: DMSO, higher = longer survival) 116 % of control; under setting [3], 102 % of control.

For `CO[C@@H]1[C@@H](OC2OC(C)C(OC3CC(C)(O)C(OC(=O)CC(C)C)C(C)O3)C(N(C)C)C2O)[C@@H](CC=O)C[C@@H](C)C(=O)/C=C/C2O[C@H]2C[C@@H](C)OC(=O)C[C@H]1OC(C)=O` (some centres not stated), the T/C was 98 % of control (endpoint: mean tumor weight, dose: 37.5 mg/kg/injection, schedule: Q01DX011 (ip), vehicle: other, higher = larger tumour); 83 % of control (endpoint: mean tumor weight, dose: 37.5 mg/kg/injection, schedule: Q01DX011 (ip), vehicle: saline, higher = larger tumour); 76 % of control (endpoint: mean tumor weight, dose: 75.0 mg/kg/injection, schedule: Q01DX011 (ip), vehicle: other, higher = larger tumour); 47 % of control (endpoint: mean tumor weight, dose: 150.0 mg/kg/injection, schedule: Q01DX011 (ip), vehicle: other, higher = larger tumour); 63 % of control and 81 % of control (endpoint: mean tumor weight, dose: 150.0 mg/kg/injection, schedule: Q01DX011 (ip), vehicle: saline, higher = larger tumour); 15 % of control (endpoint: mean tumor weight, dose: 300.0 mg/kg/injection, schedule: Q01DX011 (ip), vehicle: other, higher = larger tumour). For the same compound, the T/C (endpoint: mean tumor weight, dose: 300.0 mg/kg/injection, schedule: Q01DX011 (ip), vehicle: saline, higher = larger tumour) was 44 % of control and 48 % of control.

Take `O=NN(CCF)C(=O)NC1CSCSC1`: the T/C was 61 % of control (endpoint: median tumor weight (est.), dose: 14.0 mg/kg/injection, schedule: Q01DX001 (ip), vehicle: saline with Tween-80, higher = larger tumour); 45 % of control (endpoint: median tumor weight (est.), dose: 27.0 mg/kg/injection, schedule: Q01DX001 (ip), vehicle: saline with Tween-80, higher = larger tumour); 8 % of control (endpoint: median tumor weight (est.), dose: 41.0 mg/kg/injection, schedule: Q01DX001 (ip), vehicle: saline with Tween-80, higher = larger tumour).

For the compound `c1ccc(N/N=C2/CCN3CCCc4cccc2c43)cc1`, the T/C by setting is: under setting [3], 105 % of control; (endpoint: median survival time, dose: 25.0 mg/kg/injection, schedule: Q04DX003 (ip), vehicle: DMSO, higher = longer survival) 87 % of control; (endpoint: median survival time, dose: 50.0 mg/kg/injection, schedule: Q04DX003 (ip), vehicle: DMSO, higher = longer survival) 109 % of control.

As to `Nc1cc2nc3ccccc3sc-2cc1=O`, the T/C under setting [1] is 104 % of control and the T/C (endpoint: median survival time, dose: 100.0 mg/kg/injection, schedule: Q01DX009 (ip), vehicle: saline with Tween-80, higher = longer survival) was 90 % of control.
